According to ChEMBL document CHEMBL1201862, “PubChem BioAssay data set” (2004):
Each block holds one compound with its values, some of them ahead of it. The source made the active and inactive calls.

Columns and labels:
[1] = molecular target: Melanin-concentrating hormone receptor 1 (Homo sapiens, UniProt Q99705); test: Fluorescence-based counterscreen for antagonists of the G-protein coupled receptor 7 (GPR7): cell-based high throughput dose response assay to identify antagonists of the melanin-concentrating hormone receptor 1 (MCHR1).; assay type: functional
[2] = molecular target: T1, DNA repair protein RAD52 homolog (Homo sapiens, UniProt P43351); assay type: functional, biochemical
T1 sequence (P43351 whole entry): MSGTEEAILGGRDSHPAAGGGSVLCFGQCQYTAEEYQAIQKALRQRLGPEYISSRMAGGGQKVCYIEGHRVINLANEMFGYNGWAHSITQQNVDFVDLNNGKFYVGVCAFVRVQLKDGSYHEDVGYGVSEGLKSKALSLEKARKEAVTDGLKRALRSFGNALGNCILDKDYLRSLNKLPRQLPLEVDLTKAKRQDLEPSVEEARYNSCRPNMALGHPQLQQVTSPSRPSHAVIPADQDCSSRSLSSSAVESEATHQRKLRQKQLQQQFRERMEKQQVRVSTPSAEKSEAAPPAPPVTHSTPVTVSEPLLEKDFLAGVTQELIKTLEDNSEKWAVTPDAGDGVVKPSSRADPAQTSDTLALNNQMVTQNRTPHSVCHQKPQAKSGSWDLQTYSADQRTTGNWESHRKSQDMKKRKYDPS

[3] = molecular target: T2, DNA repair and recombination protein RAD54-like (Homo sapiens, UniProt Q92698); test: inhibitors of human RAD54 branch migration, confirmation, biochemical, fluorescence, cherry-picked samples, dose series (AID 651657); assay type: functional
T2 sequence (Q92698 whole entry): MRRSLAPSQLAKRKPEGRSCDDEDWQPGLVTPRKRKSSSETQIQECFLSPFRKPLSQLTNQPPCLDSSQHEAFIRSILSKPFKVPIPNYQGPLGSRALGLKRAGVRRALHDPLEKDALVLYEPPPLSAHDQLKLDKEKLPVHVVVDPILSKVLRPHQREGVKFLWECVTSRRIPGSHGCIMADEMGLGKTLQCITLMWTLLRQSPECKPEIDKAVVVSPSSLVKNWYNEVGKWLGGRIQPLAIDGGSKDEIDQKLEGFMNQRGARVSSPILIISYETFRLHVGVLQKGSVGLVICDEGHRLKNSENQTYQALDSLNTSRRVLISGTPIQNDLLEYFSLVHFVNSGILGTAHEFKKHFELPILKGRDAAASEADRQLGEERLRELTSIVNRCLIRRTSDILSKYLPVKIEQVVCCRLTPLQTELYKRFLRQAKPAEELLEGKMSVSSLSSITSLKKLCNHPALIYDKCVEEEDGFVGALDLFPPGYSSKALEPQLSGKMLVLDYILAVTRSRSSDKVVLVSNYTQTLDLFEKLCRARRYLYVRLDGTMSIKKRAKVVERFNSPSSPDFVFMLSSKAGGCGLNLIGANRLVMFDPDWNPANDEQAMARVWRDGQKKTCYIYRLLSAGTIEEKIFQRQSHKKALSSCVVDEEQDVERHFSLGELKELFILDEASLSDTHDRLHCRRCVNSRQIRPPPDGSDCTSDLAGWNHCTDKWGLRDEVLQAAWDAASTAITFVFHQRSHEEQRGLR

Vero = test: host cell cytotoxicity of antiviral hits, dose response, cytotoxicity control for West Nile virus antiviral project, secondary assay (AID 1650); assay type: functional; conditions: Chlorocebus sabaeus
[4] = molecular target: T3, Short transient receptor potential channel 4 (Mus musculus, UniProt Q9QUQ5); test: mouse TRPC4 channel inhibitors, dose response, cell-based, HEK293 TRPC4/mu-opioid, Fluo-4 calcium (AID 434942); assay type: functional;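 note: potency of inhibitors blocking the TRPC4 calcium response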
T3 sequence (Q9QUQ5 whole entry): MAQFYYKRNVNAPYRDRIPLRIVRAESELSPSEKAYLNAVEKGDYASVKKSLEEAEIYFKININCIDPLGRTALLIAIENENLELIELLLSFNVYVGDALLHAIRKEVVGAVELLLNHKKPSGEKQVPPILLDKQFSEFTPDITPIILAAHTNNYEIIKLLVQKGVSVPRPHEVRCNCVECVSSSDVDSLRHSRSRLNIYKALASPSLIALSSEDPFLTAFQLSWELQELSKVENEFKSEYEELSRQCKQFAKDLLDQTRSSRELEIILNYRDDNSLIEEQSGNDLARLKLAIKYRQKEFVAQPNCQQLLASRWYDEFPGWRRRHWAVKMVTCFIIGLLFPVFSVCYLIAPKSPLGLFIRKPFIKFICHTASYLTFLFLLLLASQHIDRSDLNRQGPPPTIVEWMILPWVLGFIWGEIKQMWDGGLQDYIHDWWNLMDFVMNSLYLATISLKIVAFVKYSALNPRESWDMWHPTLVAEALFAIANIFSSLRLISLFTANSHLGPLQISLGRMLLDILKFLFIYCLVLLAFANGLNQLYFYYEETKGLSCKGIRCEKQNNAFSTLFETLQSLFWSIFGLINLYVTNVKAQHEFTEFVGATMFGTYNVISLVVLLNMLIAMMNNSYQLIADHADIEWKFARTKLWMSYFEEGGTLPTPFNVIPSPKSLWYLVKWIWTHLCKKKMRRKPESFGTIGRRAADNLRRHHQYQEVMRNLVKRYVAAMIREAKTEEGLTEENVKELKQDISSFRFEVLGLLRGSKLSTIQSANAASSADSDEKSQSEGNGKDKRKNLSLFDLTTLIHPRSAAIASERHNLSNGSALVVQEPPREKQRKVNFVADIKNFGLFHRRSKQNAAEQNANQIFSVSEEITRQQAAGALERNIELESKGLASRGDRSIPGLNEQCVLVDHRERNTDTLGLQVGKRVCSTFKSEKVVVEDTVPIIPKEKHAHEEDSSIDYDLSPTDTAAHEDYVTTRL

Protein Rev [5] = molecular target: Protein Rev (Human immunodeficiency virus type 1 group M subtype B (isolate WMJ22)(HIV-1), UniProt P05866); test: HIV-1 Rev-RRE RNA binding disruptors, dose response, biochemical, protein-RNA interaction (AID 842); set-up: species or system Human immunodeficiency virus 1
[6] = molecular target: T4, Eukaryotic translation initiation factor 2-alpha kinase 3 (Homo sapiens, UniProt Q9NZJ5); test: Dose response cell-based high-throughput screening assay to measure PERK inhibition. [Related pubchem assays: 1416 ]; assay type: functional
[7] = molecular target: T4, Eukaryotic translation initiation factor 2-alpha kinase 3; test: Counterscreen assay for PERK inhibitors: Dose response cell-based high throughput screening assay to measure inhibition of PERK at 6 hours. [Related pubchem assays: 1522, 1416 ]; assay type: functional
Bcl-2-like protein 10 = Bcl-2-like protein 10 (Homo sapiens, UniProt Q9HD36); test: displacers of TR3 peptide from Bcl-B, primary screen, selectivity assay for Bfl-1 inhibitor project, biochemical, fluorescence polarization, FITC-TR3 peptide (AID 748);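 note: fluorescence polarization from a fluorescein-labelled TR3 peptide binding purified Bcl-B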
Protein Rev [8] = molecular target: Protein Rev (Human immunodeficiency virus type 1 group M subtype B (isolate HXB2)(HIV-1), UniProt P04618); test: inhibitors of Rev binding to RRE RNA, dose response, biochemical, fluorescence polarization, HIV-1 (AID 434976); set-up: species or system Human immunodeficiency virus 1
[9] = molecular target: T5, Polyadenylate-binding protein 1 (Homo sapiens, UniProt P11940); test: PABP1 MLLE–PAM2 binding inhibitor potency, dose response, biochemical, fluorescence polarization, FITC-PAM2 peptide (AID 602259); assay type: functional; conditions: read-out: IC50_Mean
[10] = molecular target: Female germline-specific tumor suppressor gld-1 (Caenorhabditis elegans, UniProt Q17339); test: inhibitors of GLD-1 binding to TGE RNA, dose response, biochemical, fluorescence polarization, C. elegans (AID 2802);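 note: fluorescence polarization of labeled TGE RNA bound by purified gld-1 protein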
[11] = molecular target: T5, Polyadenylate-binding protein 1; test: PABP1 MLLE–PAM2 interaction inhibitors, dose response, miRNA deadenylation inhibitor project, biochemical, fluorescence polarization, Cy5-PAM2 peptide, secondary (AID 602260); assay type: functional; conditions: read-out: IC50_Mean
[12] = molecular target: Protein phosphatase methylesterase 1 (Homo sapiens, UniProt Q9Y570); test: PME-1 inhibitor potency by in-gel ABPP, dose response, selectivity assay for PME-1 inhibitor project, cell lysate, mouse brain cytosol, FP-rhodamine, panel member PME-1 Assay Panel member description: Inhibition of endogenously expressed PME-1 (AID 2366)
[13] = molecular target: Nucleotide-binding oligomerization domain-containing protein 2 (Homo sapiens, UniProt Q9HC29); test: PubChem AID 2334; assay type: functional
[14] = molecular target: Nucleotide-binding oligomerization domain-containing protein 1 (Homo sapiens, UniProt Q9Y239); test: NOD1 signaling inhibitors, SAR follow-up, revised (AID 2333); assay type: functional
Tumor necrosis factor = Tumor necrosis factor (Homo sapiens, UniProt P01375); test: TNFa-triggered NF-kB activation inhibitors, SAR follow-up, cell-based, revised (AID 2337); assay type: functional
HEK293 = test: cells; conditions: Homo sapiens;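 note: cells exposed to compound for 14 hours overnight before viability readout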

T4 sequence (Q9NZJ5 whole entry): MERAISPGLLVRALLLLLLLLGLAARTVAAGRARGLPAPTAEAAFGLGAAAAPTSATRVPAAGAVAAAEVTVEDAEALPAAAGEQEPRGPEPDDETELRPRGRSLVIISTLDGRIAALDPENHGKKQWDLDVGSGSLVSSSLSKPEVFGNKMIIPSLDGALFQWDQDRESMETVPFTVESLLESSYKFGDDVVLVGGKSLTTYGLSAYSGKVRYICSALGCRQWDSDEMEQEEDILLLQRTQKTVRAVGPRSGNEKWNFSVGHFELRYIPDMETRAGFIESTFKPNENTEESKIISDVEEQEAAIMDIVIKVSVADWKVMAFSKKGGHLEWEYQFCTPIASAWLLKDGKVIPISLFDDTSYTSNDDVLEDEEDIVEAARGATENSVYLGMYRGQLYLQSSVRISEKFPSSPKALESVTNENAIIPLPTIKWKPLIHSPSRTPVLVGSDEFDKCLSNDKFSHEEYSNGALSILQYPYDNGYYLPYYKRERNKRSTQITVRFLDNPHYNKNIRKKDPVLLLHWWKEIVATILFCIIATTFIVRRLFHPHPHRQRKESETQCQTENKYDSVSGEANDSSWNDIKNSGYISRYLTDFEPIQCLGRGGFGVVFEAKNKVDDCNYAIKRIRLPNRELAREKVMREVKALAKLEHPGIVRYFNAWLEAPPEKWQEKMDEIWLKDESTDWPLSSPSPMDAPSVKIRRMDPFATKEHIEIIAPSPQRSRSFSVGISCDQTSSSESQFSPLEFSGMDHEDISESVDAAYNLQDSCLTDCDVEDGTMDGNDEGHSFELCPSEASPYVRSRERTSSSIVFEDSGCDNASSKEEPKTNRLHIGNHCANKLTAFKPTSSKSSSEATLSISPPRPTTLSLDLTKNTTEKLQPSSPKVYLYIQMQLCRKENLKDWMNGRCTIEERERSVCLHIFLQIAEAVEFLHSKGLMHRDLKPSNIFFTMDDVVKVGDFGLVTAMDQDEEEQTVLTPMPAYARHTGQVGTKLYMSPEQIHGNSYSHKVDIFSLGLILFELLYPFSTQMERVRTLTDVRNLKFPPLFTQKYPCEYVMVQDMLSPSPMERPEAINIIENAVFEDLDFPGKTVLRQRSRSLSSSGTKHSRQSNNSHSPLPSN
T5 sequence (P11940 whole entry): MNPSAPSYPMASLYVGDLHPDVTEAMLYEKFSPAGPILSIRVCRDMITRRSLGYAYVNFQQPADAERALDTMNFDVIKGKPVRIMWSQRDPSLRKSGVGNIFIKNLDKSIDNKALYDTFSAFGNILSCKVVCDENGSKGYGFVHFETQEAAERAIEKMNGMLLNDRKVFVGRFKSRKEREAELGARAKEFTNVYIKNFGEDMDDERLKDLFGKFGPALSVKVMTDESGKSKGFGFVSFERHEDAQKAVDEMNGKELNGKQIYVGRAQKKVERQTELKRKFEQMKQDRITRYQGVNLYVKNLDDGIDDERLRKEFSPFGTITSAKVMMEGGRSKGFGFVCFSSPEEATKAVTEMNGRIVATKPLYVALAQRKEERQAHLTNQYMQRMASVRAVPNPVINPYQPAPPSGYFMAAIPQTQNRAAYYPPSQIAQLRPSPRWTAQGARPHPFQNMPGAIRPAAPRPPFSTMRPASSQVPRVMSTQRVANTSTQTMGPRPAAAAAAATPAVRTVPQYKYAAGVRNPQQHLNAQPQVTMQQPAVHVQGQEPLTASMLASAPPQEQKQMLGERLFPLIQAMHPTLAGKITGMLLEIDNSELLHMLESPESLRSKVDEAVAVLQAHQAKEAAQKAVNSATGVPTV
Sequence of Nucleotide-binding oligomerization domain-containing protein 1 (Q9Y239 whole entry, the tested form may be a part): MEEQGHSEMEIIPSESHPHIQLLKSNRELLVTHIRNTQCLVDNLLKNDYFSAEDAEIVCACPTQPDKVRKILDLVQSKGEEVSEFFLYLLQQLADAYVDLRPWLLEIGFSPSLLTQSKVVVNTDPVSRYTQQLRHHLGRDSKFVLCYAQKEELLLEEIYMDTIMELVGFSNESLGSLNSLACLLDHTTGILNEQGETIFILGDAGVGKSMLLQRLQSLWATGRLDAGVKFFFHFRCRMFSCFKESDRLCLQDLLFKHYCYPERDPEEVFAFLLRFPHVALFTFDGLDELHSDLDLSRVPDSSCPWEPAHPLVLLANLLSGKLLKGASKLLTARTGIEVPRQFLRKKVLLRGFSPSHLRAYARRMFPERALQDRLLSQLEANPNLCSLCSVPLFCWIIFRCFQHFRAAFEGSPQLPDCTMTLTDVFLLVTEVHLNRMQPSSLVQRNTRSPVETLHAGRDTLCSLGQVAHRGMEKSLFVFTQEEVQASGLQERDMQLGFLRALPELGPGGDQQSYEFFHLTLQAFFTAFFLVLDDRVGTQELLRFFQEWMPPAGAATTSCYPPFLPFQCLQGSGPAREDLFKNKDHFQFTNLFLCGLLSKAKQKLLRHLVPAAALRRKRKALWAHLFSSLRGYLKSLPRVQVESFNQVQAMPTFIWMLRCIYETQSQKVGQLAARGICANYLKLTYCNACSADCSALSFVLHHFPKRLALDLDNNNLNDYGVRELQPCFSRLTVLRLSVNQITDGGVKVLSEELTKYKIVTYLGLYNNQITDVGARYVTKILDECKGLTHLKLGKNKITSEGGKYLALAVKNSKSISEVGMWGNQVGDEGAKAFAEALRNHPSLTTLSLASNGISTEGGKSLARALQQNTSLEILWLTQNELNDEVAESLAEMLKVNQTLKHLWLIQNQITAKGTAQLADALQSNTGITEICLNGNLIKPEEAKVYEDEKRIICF
Sequence of Nucleotide-binding oligomerization domain-containing protein 2 (Q9HC29 whole entry, the tested form may be a part): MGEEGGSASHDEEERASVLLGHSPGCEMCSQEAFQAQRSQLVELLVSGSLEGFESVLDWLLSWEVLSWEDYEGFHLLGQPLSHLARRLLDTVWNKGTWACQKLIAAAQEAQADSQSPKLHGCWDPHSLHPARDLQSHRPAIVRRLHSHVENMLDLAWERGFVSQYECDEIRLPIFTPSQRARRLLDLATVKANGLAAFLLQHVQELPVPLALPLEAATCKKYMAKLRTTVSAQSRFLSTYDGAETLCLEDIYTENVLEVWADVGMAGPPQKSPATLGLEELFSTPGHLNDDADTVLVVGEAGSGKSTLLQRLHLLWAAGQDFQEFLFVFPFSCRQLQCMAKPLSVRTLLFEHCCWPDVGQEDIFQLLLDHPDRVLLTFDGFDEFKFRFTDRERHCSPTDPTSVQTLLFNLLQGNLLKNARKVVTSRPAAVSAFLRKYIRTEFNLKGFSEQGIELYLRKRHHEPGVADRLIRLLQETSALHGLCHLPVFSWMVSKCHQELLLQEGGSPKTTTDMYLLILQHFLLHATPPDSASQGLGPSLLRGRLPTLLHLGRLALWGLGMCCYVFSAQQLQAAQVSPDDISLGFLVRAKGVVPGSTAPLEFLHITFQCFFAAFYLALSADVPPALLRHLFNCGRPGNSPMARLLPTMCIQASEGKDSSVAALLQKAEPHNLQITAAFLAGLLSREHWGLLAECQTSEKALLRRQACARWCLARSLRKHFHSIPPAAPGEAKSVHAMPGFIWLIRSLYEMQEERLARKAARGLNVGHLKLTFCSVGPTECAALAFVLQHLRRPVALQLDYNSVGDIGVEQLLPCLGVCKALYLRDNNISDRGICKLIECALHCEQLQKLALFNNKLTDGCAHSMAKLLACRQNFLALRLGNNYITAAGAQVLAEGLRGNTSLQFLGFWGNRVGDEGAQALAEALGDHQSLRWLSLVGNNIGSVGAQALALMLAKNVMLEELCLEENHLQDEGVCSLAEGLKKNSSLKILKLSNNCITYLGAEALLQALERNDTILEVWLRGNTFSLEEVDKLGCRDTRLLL
Sequence of Protein Rev (Human immunodeficiency virus type 1 group M subtype B (isolate WMJ22)(HIV-1), UniProt P05866) (P05866 whole entry): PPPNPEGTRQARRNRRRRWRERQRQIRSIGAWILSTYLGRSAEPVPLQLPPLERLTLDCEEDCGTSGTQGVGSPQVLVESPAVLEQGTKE
Sequence of Bcl-2-like protein 10 (Q9HD36 whole entry): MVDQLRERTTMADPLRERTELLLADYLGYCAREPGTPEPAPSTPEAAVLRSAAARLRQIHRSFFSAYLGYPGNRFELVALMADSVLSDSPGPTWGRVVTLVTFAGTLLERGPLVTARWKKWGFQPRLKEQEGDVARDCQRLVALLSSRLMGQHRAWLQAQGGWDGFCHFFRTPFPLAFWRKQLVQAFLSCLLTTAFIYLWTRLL
Sequence of Protein phosphatase methylesterase 1 (Q9Y570 whole entry, the tested form may be a part): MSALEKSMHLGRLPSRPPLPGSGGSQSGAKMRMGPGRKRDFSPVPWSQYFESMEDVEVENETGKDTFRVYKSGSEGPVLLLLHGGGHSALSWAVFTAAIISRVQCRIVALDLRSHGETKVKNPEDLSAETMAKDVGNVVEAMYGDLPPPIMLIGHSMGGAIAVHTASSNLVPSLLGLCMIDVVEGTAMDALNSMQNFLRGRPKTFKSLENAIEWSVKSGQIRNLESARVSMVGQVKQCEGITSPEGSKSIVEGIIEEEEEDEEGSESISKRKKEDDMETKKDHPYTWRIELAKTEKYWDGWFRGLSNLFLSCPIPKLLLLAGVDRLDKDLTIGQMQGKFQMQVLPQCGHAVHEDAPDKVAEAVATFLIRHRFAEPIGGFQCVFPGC
Sequence of Melanin-concentrating hormone receptor 1 (Q99705 whole entry): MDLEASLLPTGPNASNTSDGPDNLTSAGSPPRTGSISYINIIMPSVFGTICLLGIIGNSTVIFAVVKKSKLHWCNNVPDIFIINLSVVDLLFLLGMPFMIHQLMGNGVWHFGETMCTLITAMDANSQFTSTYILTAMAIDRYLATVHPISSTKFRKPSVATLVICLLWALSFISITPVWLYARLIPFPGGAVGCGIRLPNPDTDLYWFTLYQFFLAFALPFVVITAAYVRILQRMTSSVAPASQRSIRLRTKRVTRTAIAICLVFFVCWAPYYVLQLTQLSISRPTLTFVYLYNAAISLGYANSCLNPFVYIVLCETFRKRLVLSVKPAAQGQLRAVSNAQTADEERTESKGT
Sequence of Tumor necrosis factor (P01375 whole entry): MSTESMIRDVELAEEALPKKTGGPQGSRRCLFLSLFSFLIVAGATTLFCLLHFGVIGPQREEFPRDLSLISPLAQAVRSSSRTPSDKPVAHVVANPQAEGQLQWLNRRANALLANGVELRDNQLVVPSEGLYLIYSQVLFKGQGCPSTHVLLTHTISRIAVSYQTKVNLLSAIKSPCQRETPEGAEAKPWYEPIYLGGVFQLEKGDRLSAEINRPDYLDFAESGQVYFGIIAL

SMILES: CCN(CC)CCNC(=O)CCc1c(C)nc2c(c(C)nn2-c2ccc(C)cc2)c1C
IC50 [1]: 11.2 µM (not active)

SMILES: CCc1ccc2nc3nc(C)cc(C)c3c(N)c2c1
AC50 [2]: 3.58 µM (active) | AC50 [3]: 9.59 µM (active) | CC50 (Vero): 21.6 µM (active) | EC50 [4]: 3.35 µM (active) | IC50 (Protein Rev [5]): 58.8 µM (not active)

SMILES: Nc1nnnn1/N=C/c1cc(Cl)ccc1O
IC50 (Protein Rev [8]): > 75.3 µM (not active) | IC50 [9]: 38.8 µM (inactive) | IC50 [10]: 6.2 µM (active) | IC50 [11]: 35.1 µM (inactive)

SMILES: CCOC(=O)c1c(NC(=O)CN2CCOCC2)sc2c1CC(C)(C)OC2
IC50 [13]: > 20 µM (inactive) | IC50 [14]: > 20 µM (inactive) | IC50 (Tumor necrosis factor): > 20 µM (inactive) | IC50 (HEK293): > 20 µM (inactive)

The remaining lines, values ahead:

EC50 [6]: > 55.7 µM (not active) | EC50 [7]: > 55.7 µM (not active)
SMILES: Cn1c(=O)c2c(SCc3ccccc3)nc(-c3ccco3)nc2n(C)c1=O

IC50 (Bcl-2-like protein 10): 70.4 µM (inactive)
SMILES: O=C(C[n+]1ccc(C(=O)NN=Cc2ccc(O)cc2)cc1)c1ccccc1

IC50 [12]: > 20 µM (inactive)
SMILES: CS(=O)(=O)/C(C#N)=C/c1cccn1S(=O)(=O)c1cccc2ccccc12
